Measurements reported in paper PMC11078990, “Identification and characterization of small molecule inhibitors of the LINE-1 retrotransposon endonuclease” (Nature Communications, 2024).
Several values for one entry are separate records, joined by “and”; a condition that tells them apart may be missing. Equal entries are not always repeated.

How the values were obtained:
[1] = test system: substrate oligonucleotide used in the EN activity assay; assay type: binding; design: key to Binding Detected? (Y/N): Binding Detected? (Y/N); Binding Detected? (Y/N)
[2] = target: L1 EN (LINE-1 retrotransposon endonuclease domain) (Homo sapiens, UniProt O00370, N5T); assay: Fluorescent oligonucleotide EN nicking activity assay; assay type: biochemical
L1 EN (LINE-1 retrotransposon endonuclease domain), sequence (O00370 1-239 N5T): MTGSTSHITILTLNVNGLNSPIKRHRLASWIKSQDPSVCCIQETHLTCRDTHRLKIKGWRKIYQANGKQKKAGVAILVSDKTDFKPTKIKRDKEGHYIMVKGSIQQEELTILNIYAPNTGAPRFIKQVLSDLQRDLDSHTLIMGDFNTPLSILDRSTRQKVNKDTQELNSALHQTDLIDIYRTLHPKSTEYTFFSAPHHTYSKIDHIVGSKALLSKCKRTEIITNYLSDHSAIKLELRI

L1 retrotransposition = assay: HeLa dual-luciferase L1 retrotransposition assay; assay type: cell-based, human; details: HeLa cells
APE1 = target: T1, APE1 (Homo sapiens, UniProt P27695); assay: APE1 fluorescent oligonucleotide activity assay (abasic site substrate); assay type: biochemical; details: for APE1 percent activity, Replicate 1 / APE1 percent activity, Replicate 2 / APE1 percent activity, Replicate 3 / APE1 percent activity, average: compound at 25 μM; for APE1 percent activity, average: average of 3 replicates; for activity at 25 µM: inhibitors at 25 μM, relative to 0 μM inhibitor control, mean ± s.d., 3 independent experiments, read-out: APE1 activity (%)
T1 construct: purchased New England Biolabs (NEB) M0282S

[3] = [Inhibitor] 1 μM, technical replicates 1-3, Fig. 2b source data, 1 µM
[4] = [Inhibitor] 1 μM, technical replicates 1-3, Fig. 2b source data, read-out: EN activity, percent of no inhibitor control
[5] = [Inhibitor] 5 μM, technical replicates 1-3, Fig. 2b source data, 5 µM
[6] = [Inhibitor] 5 μM, technical replicates 1-3, Fig. 2b source data, read-out: EN activity, percent of no inhibitor control
[7] = [Inhibitor] 10 μM, technical replicates 1-3, Fig. 2b source data, 10 µM
[8] = [Inhibitor] 10 μM, technical replicates 1-3, Fig. 2b source data, read-out: EN activity, percent of no inhibitor control
[9] = [Inhibitor] 25 μM, technical replicates 1-3, Fig. 2b source data, 25 µM
[10] = [Inhibitor] 25 μM, technical replicates 1-3, Fig. 2b source data, read-out: EN activity, percent of no inhibitor control
[11] = [Inhibitor] 50 μM, technical replicates 1-3, Fig. 2b source data, 50 µM
[12] = [Inhibitor] 50 μM, technical replicates 1-3, Fig. 2b source data, read-out: EN activity, percent of no inhibitor control
[13] = [Inhibitor] 100 μM, technical replicates 1-3, Fig. 2b source data, 100 µM
[14] = [Inhibitor] 100 μM, technical replicates 1-3, Fig. 2b source data, read-out: EN activity, percent of no inhibitor control
[15] = [Inhibitor] 250 μM, technical replicates 1-3, Fig. 2b source data, 250 µM
[16] = [Inhibitor] 500 μM, technical replicates 1-3, Fig. 2b source data, 500 µM
[17] = [Inhibitor] 1000 μM, technical replicates 1-3, Fig. 2b source data, 1000 µM
[18] = [Inhibitor] 1000 μM, technical replicates 1-3, Fig. 2b source data, read-out: EN activity, percent of no inhibitor control
[19] = [Inhibitor] 250 μM, technical replicates 1-3, Fig. 2b source data, read-out: EN activity, percent of no inhibitor control
[20] = [Inhibitor] 500 μM, technical replicates 1-3, Fig. 2b source data, read-out: EN activity, percent of no inhibitor control
[21] = [Inhibitor] 2500 μM, technical replicates 1-3, Fig. 2b source data, 2500 µM

SMILES	Binding Detected? (Y/N) [1]	EN activity, percent of no inhibitor control [2, 3]	EN activity, percent of no inhibitor control [2, 5]	EN activity, percent of no inhibitor control [2, 7]	remaining activity at 10 µM [2, 8] [%]	EN activity, percent of no inhibitor control [2, 9]	EN activity, percent of no inhibitor control [2, 11]	remaining activity at 50 µM [2, 12] [%]	EN activity, percent of no inhibitor control [2, 13]	remaining activity at 100 µM [2, 14] [%]	EN activity, percent of no inhibitor control [2, 15]	EN activity, percent of no inhibitor control [2, 16]	EN activity, percent of no inhibitor control [2, 17]	remaining activity at 1000 µM [2, 18] [%]	APE1 percent activity, Replicate 1 (APE1) [%]	APE1 percent activity, Replicate 2 (APE1) [%]	APE1 percent activity, Replicate 3 (APE1) [%]	APE1 percent activity, average (APE1) [%]	activity at 25 µM (APE1) [%]	remaining activity at 250 µM [2, 19] [%]	other results
O=C(Nc1ccc(S(=O)(=O)NCc2ccco2)cc1)c1cc(NS(=O)(=O)c2cccs2)cc(NS(=O)(=O)c2cccs2)c1 [AD18]	N	113.77% and 114.319%	110.276% and 111.074%	114.402% and 118.423%	107	99.7158% and 102.855%	87.6677% and 95.4608%	82	45.2675% and 31.8714%	46.3	-2.192% and 4.074% and 1.188%	1.364% and -0.7511% and -2.792%	4.465% and 5.692%	3.32	95.6087	100.395	113.415	103.14	103 ± 9.2	–	remaining activity at 1 µM [2, 4]: 128%; remaining activity at 5 µM [2, 6]: 98.7%; remaining activity at 25 µM [2, 10]: 118%; Effect on L1 retrotransposition (L1 retrotransposition): did not significantly impact retrotransposition
Cc1ccc(NC(=O)CSc2nc(-c3ccccc3F)nc3c2Cc2c(CO)cnc(C)c2O3)cc1 [AD28]	N	96.841% and 106.468%	89.9598% and 81.1542%	–	–	–	92.3894% and 103.331%	89.2	86.184% and 81.609%	79.1	59.9195% and 84.2317% and 41.5158%	4.092% and 40.0005% and 32.2238%	23.297% and 19.7447%	37.6	117.021	119.222	118.718	118.32	118 ± 1.2	–	remaining activity at 1 µM [2, 4]: 95.4%; remaining activity at 5 µM [2, 6]: 92%; EN activity, percent of no inhibitor control ([2]; [Inhibitor] 20 μM, technical replicates 1-3, Fig. 2b source data, 20 µM): 104.354% and 99.6299%; remaining activity at 20 µM ([2]; [Inhibitor] 20 μM, technical replicates 1-3, Fig. 2b source data, read-out: EN activity, percent of no inhibitor control): 87.7%; EN activity, percent of no inhibitor control ([2]; [Inhibitor] 750 μM, technical replicates 1-3, Fig. 2b source data, 750 µM): 45.0869% and 49.2787%; remaining activity at 750 µM ([2]; [Inhibitor] 750 μM, technical replicates 1-3, Fig. 2b source data, read-out: EN activity, percent of no inhibitor control): 52.5%
COc1ccc([N+](=O)[O-])cc1NC(=O)c1ccc2c(c1)N(Cc1cc(C)ccc1C)C(=O)c1ccccc1S2(=O)=O [AD34]	N	107.144% and 82.3328% (2×)	106.747% and 72.7727% (2×)	61.3218%	63.6	17.0147%	2.345%	1.88	-0.6009% and -1.977% (2×)	–	6.512%	–	–	–	115.867	110.244	115.389	113.833	114 ± 3.1	4.89	remaining activity at 25 µM [2, 10]: 13.4%; Effect on L1 retrotransposition (L1 retrotransposition): did not significantly impact retrotransposition
O=C(O)C1CCC(Cn2c(=S)[nH]c3ccc(F)cc3c2=O)CC1 (centres unmarked) [AD41]	N	–	–	93.0871% and 88.0691%	99.2	–	81.1063% and 95.3657%	81.9	73.6781% and 70.7755%	89.5	52.6672% and 53.2546%	15.8485% and 15.0123%	2.51% and 3.937%	3.26	117.184	102.457	114.725	111.455	112 ± 7.9	37.1	remaining activity at 500 µM [2, 20]: 16.8%; EN activity, percent of no inhibitor control [2, 21]: -0.5395% and 2.354% and 1.088%; EN activity, percent of no inhibitor control ([2]; [Inhibitor] 5000 μM, technical replicates 1-3, Fig. 2b source data, 5000 µM): 3.138% and -0.1325% and -0.6231%
Cc1cc(O[C@H](C)C(=O)NC[C@H]2CC[C@H](C(=O)O)CC2)c2c3c(c(=O)oc2c1)CCC3 [AD50]	N	–	–	88.1732% and 95.3255%	89.8	105.309% and 98.5437% and 118.945%	102.098% and 94.5993%	99.1	99.5828% and 92.7301%	105	85.2034% and 69.8502%	1.6976% and 1.409%	0.8764% and -0.04895% and -0.3009%	–	117.885	112.48	116.717	115.694	116 ± 2.8	78.9	remaining activity at 500 µM [2, 20]: 1.24%; EN activity, percent of no inhibitor control [2, 21]: 1.256% and 0.4525% and 1.333%
NC[C@H]1CC[C@H](C(=O)O)CC1 [tranexamic acid, reference compound]	–	–	–	–	–	–	–	–	–	–	–	–	–	–	–	–	–	–	–	–	IC50 in the fluorescent oligonucleotide assay [2]: does not inhibit sufficiently to calculate an; inhibition at 25000 µM ([2]; 25 mM, highest soluble concentration): ~75%
